Source: publication PMC11286609, “In vitro and in vivo analyses of eFAP: a novel FAP-targeting small molecule for radionuclide theranostics and other oncological interventions” (EJNMMI Radiopharmacy and Chemistry, 2024)

Assays:
[1] = target: T1, huFAP (HT1080-huFAP cells) (Homo sapiens, UniProt Q12884); assay: [^111In]In-FAPI-46 displacement assay on FAP-expressing cells; type: binding; details: 10^-9 M [^111In]In-FAPI-46, 45 min, n = 3, picture: nM ± 95% CI
T1 construct: expressed in transfected cells; host or cells: HT1080 (human sarcoma), stably transduced; provided by Prof; Dr. Uwe Haberkorn, University of Heidelberg
T1 sequence (Q12884 1-760): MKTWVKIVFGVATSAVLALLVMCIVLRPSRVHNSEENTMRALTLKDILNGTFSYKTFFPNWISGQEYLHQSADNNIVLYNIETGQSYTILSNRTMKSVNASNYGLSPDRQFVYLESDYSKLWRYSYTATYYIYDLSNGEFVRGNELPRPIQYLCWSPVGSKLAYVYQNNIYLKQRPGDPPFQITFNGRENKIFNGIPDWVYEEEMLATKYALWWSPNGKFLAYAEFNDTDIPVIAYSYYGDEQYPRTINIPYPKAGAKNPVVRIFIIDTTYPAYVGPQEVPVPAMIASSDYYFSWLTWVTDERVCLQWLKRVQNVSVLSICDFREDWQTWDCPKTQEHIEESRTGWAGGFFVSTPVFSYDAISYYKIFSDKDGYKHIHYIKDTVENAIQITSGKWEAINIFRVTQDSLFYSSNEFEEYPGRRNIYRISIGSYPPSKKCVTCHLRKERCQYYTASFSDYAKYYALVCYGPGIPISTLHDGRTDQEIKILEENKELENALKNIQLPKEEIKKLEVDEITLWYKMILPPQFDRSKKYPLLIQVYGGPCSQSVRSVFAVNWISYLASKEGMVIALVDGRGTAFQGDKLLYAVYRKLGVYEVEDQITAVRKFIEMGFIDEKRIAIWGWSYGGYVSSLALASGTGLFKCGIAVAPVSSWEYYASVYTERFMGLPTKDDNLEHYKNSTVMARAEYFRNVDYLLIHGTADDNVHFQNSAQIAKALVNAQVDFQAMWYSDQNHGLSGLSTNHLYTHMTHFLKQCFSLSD
Method: (§1) Cell experiments were performed with the human sarcoma HT1080 cell line, stably transduced with human FAP (HT1080-huFAP) which were kindly provided by Prof. Dr. Uwe Haberkorn from the University of Heidelberg. The wild type HT1080 (ATTC), hereafter HT080-WT, was used as a negative control. Additionally, the pancreatic stellate cells PS-1, obtained from Queen Mary University, were used as an endogenously FAP expressing cell line. HT1080-huFAP and HT1080-WT cells were cultured in DMEM Glutamax© (Gibco; Breda, The Netherlands) and the PS-1 cells were cultured in RPMI (Gibco). Both media were supplemented with 10% FBS (Gibco), 100 UI/mL penicillin, and 100 µg/mL streptomycin (Merck Life Science NV; Amsterdam, The Netherlands). All cell lines were regularly passaged at 80% confluence and cultured at 37 °C, 5% CO2.
In vitro displacement studies of eFAP-6 and eFAP-7, as well as specificity and uptake assays, were performed using HT0180-huFAP cells. One day prior to the assay 100,000 cells were seeded in a 12-well plate in triplicate. […] For the uptake assay, the cells were incubated with 1 nM [^111In]In-eFAP-6 or [^111In]In-FAPI-46 for different time points (5–120 min) in the presence and absence of 1 mM UAMC-1110 to determine the specificity of^111 radiotracer binding. In both assays, the cells were washed twice with PBS after incubation and were subsequently lysed using 1 M NaOH for 20 min. The cell lysates were collected and radioactivity was measured in a γ-counter (PerkinElmer), simultaneously with 100 µL of the radioactive incubation medium as a standard. […] Uptake was expressed as percentage added activity per 200,000 cells (% AA/200,000 cells), and specific uptake was corrected by subtracting the uptake measured in the block wells.
All statistical analyses were performed with GraphPad Prism version 9.0 (San Diego, California USA). All IC50 values were determined using a non-linear regression Log(inhibitor) vs. response analysis with variable slope (four parameters). […]

[2] = target: T2, dipeptidyl peptidase IV (DPP4) (Homo sapiens, UniProt P27487); assay: Enzymatic inhibition assay, DPP4; type: biochemical; details: recombinant DPP4, n = 3; picture: nM ± 95% CI
T2 construct: purchased Abcam
T2 sequence (P27487 whole entry, species assumed): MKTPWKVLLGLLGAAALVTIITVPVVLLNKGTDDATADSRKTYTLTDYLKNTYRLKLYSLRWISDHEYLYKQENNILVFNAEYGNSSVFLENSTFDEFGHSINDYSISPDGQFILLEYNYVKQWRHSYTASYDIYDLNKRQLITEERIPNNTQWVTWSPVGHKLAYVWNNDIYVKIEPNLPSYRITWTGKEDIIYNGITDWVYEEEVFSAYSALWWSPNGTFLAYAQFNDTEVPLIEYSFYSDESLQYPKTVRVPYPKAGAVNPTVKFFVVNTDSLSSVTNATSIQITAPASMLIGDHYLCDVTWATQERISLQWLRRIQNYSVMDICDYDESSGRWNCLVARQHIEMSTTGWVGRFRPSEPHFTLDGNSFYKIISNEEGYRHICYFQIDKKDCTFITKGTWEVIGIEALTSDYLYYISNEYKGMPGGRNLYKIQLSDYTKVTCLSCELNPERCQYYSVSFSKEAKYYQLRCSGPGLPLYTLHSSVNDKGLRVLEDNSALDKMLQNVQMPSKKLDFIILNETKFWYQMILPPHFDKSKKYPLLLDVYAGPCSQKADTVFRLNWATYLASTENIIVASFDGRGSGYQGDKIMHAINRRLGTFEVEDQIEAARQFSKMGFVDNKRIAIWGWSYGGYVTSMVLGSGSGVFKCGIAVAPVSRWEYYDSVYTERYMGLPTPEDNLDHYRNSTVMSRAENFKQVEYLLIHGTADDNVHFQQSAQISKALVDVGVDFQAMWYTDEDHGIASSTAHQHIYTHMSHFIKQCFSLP
Method: All experiments were performed in triplicate and repeated at least three times.

[3] = system: PS-1 cells; assay: Confocal microscopy of fluorescent tracer uptake, PS-1; type: cell-based
Method: as §1
Fluorescent tracer uptake was analyzed on HT1080-huFAP, HT1080-WT, and PS-1 cells. One day prior to the assay 280,000 HT1080-huFAP, 300,000 HT1080-WT, and 460,000 PS-1 cells were seeded on […] coverslips in a 6-well plate. […] Cells incubated only in medium were taken along to correct for auto-fluorescence. […] Analyses were performed in Fiji (Schindelin et al. [2012]) and were subjected to a custom-made macro to correct for auto-fluorescence signal. […]

In the case of `CN(CCCN1CCN(C(=O)CN2CCN(CC(=O)O)CCN(CC(=O)O)CCN(CC(=O)O)CC2)CC1)c1ccc2nccc(C(=O)NCC(=O)N3CC(F)(F)C[C@H]3C#N)c2c1` [FAPI-46, reference compound], the IC50 [1] is reported as 1.42 ± 0.29 nM.

For `N#C[C@@H]1CC(F)(F)CN1C(=O)CNC(=O)c1ccnc2c(OCCCNC(=O)CN3CCN(CC(=O)O)CCN(CC(=O)O)CCN(CC(=O)O)CC3)cccc12` [eFAP-6, (S)-2,2',2''-(10-(2-((3-((4-((2-(2-cyano-4,4-difluoropyrrolidin-1-yl)-2-oxoethyl)carbamoyl)quinolin-8-yl)oxy)propyl)amino)-2-oxoethyl)-1,4,7,10-tetraazacyclododecane-1,4,7-triyl)triacetic acid], the IC50 [2] was 58600 ± 11400 nM and the IC50 [1] was 0.62 ± 0.26 nM.

With `CN1/C(=C/C=C/C=C/C2=[N+](CCCCCC(=O)NCCCOc3cccc4c(C(=O)NCC(=O)N5CC(F)(F)C[C@H]5C#N)ccnc34)c3ccc(S(=O)(=O)[O-])cc3C2(C)C)C(C)(C)c2cc(S(=O)(=O)O)ccc21` [eFAP-7, 1-(6-((3-((4-((2-((S)-2-cyano-4,4-difluoropyrrolidin-1-yl)-2-oxoethyl)carbamoyl)quinolin-8-yl)oxy)propyl)amino)-6-oxohexyl)-3,3-dimethyl-5-sulfo-2-((1E,3E)-5-((E)-1,3,3-trimethyl-5-sulfoindolin-2-ylidene)penta-1,3-dien-1-yl)-3H-indol-1-ium] the IC50 [2] was 612000 ± 42700 nM, the IC50 [1] was 1 ± 0.36 nM and the “sCy5 signal with an excess of UAMC-1110” value ([3]; PS-1, 1 nM tracer + 1 mM UAMC-1110) was “almost no visible signal”. The “uptake in PS-1 cells relative to HT1080-huFAP” value ([3]; PS-1, 1 nM, 15 and 45 min) was “visibly lower than for HT1080-huFAP”.
